Results on three molecules are retold here after ChEMBL document CHEMBL5653631, “A Potent and Selective ULK1 Inhibitor Suppresses Autophagy and Sensitizes Cancer Cells to Nutrient Stress” (iScience, 2018).

Assay [1] deals with T1, Myotonin-protein kinase (Homo sapiens) (UniProt Q09013).
T1 sequence (whole entry): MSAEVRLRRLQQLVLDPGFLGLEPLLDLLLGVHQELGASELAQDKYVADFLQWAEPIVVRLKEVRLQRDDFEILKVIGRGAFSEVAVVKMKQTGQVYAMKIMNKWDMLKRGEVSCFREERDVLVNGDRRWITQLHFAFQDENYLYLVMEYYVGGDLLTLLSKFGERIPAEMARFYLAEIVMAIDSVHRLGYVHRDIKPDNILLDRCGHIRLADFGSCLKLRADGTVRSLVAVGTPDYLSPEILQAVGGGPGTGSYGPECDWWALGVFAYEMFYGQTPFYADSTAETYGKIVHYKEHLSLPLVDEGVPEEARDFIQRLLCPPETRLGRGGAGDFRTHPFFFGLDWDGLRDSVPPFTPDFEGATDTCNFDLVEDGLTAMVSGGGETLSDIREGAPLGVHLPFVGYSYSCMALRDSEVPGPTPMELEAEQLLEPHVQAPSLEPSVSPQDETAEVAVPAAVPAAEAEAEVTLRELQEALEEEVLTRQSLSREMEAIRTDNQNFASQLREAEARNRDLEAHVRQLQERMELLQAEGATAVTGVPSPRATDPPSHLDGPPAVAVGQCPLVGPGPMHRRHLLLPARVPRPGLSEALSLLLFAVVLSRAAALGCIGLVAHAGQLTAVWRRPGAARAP
Nature of the assay: Inhibition of human recombinant DMPK1 at 40 nM in presence of ATP by radiometric assay relative to control.

Assay [2] addresses Cell division cycle 7-related protein kinase (Homo sapiens) (UniProt O00311). Description: Inhibition of human recombinant CDC7 at 40 nM in presence of ATP by radiometric assay relative to control.
Assay [3] deals with T2, Serine/threonine-protein kinase Sgk3 (Homo sapiens) (UniProt Q96BR1).
T2 sequence (whole entry): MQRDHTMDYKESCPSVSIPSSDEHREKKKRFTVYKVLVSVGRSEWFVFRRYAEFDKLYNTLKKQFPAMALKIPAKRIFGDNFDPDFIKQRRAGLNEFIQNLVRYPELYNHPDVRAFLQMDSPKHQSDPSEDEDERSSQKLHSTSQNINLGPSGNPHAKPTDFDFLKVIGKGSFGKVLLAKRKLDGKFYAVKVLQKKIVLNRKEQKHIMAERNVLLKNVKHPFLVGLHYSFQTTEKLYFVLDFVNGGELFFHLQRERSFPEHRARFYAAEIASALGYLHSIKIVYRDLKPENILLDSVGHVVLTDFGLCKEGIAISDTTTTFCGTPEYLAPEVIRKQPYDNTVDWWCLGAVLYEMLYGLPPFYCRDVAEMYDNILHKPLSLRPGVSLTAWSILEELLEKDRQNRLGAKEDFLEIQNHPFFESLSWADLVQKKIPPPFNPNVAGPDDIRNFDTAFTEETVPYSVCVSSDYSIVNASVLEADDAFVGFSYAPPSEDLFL
Description: Inhibition of human recombinant SGK3 at 500 nM in presence of ATP by radiometric assay relative to control.

The target in assay [4] is T3, Serine/threonine-protein kinase Sgk1 (Homo sapiens) (UniProt O00141).
T3 sequence (whole entry): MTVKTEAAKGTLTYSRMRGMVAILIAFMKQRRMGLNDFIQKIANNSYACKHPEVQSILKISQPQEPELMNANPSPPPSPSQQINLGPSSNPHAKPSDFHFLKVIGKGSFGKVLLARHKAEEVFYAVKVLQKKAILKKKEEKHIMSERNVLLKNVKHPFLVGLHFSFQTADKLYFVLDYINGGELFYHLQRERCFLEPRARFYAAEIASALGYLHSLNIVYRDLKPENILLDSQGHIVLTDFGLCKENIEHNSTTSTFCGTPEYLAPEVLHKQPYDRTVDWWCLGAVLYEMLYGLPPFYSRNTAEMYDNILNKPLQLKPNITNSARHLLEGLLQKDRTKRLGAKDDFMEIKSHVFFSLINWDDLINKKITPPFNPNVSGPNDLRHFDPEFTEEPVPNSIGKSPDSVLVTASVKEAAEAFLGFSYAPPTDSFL
Description: Inhibition of human recombinant SGK1 at 500 nM related to control ULK1.

The target of assay [5] is T4, MAP/microtubule affinity-regulating kinase 4 (Homo sapiens) (UniProt Q96L34).
T4 sequence (whole entry): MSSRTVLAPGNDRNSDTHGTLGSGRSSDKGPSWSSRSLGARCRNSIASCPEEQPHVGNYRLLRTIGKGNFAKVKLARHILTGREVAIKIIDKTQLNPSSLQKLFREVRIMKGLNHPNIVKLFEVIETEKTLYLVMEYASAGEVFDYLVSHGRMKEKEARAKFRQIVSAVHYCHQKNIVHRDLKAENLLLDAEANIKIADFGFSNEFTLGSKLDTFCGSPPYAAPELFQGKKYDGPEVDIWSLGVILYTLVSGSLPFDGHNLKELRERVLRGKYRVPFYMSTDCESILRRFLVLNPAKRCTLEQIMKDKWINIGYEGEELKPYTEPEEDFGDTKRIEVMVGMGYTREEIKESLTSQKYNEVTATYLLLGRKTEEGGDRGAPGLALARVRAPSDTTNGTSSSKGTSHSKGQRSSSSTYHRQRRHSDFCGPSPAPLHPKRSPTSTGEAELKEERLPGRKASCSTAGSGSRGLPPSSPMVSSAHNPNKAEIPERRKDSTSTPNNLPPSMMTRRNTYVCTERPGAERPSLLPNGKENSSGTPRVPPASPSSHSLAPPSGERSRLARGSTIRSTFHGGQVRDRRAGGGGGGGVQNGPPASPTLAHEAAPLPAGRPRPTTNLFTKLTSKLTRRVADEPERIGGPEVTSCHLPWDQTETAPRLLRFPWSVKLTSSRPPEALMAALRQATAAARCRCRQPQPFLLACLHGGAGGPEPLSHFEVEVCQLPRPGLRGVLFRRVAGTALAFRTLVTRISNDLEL
Description: Inhibition of human recombinant MARK4 at 15 nM in presence of ATP by radiometric assay relative to control.

Each structure is given as a SMILES string.

Sequence of Cell division cycle 7-related protein kinase (Homo sapiens) (O00311 whole entry, looked up): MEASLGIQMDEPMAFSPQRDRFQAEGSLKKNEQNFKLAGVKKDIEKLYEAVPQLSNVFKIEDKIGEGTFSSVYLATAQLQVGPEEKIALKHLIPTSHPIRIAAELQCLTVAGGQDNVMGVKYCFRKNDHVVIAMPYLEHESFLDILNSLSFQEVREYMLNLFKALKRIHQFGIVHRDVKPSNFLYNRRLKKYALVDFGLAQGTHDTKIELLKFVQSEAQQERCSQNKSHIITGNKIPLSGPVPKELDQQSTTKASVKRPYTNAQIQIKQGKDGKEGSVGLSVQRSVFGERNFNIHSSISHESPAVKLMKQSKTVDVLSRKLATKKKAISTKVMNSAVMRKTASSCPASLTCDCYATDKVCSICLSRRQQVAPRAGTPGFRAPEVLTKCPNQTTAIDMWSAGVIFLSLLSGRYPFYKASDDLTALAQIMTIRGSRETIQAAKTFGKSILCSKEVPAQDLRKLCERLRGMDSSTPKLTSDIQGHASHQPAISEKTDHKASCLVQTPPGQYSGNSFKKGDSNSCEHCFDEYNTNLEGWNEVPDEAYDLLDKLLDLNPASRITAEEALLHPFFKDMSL

As for `O=C(N[C@@H](C1CC1)C(F)(F)F)c1cc(-c2cnn3cc(-c4ccc(F)cc4)cnc23)cs1`, the inhibition – broadly, how much of the control response was suppressed – in assay [1] was 5%; in assay [2], 39%.

Regarding `CNC(=O)c1ccccc1Oc1nc(Nc2cc(OC)c(OC)c(OC)c2)ncc1Br`, in assay [3], the inhibition was found to be 1%. Also, the fold change (FC) in assay [4] worked out at 0.03.

As for `CC(C)[C@H](NC(=O)c1cc(-c2cnn3cc(-c4ccc(OCCN5CCCCC5)cc4)cnc23)cs1)C(F)(F)F`, the inhibition in assay [5] is 42%.
